# “And” between values parts separate entries of the source, which are not always exact repeats. Equal values may be shown once. No end group written: not given here.
# System: vesicular stomatitis Indiana virus (Indiana VSV)
# Assay type: cell-based
row,Substance,Virus infectivity (virus titer)
1,MKAIIVLLMVVTSNAKKRTLRKNDRKKR-CONH2 (MKAIIVLLMVVTSNAKKRTLRKNDRKKR-NH2) [Sample 3],9.23 log10 PFU/mL and 6.34 log10 PFU/mL
2,MKTIIALSYIFCLALGKKRTLRKNDRKKR-CONH2 (MKTIIALSYIFCLALGKKRTLRKNDRKKR-NH2) [Sample 2],9.07 log10 PFU/mL and 5.95 log10 PFU/mL
3,MLSYLIFALAVSPILGKKRTLRKNDRKKR-CONH2 (MLSYLIFALAVSPILGKKRTLRKNDRKKR-NH2) [Sample 1],9.11 log10 PFU/mL and 5.90 log10 PFU/mL

# Source: patent publication US10745448B2, “Antiviral peptide and use therefor” (priority 2017, dated 2020)
